From patent US9737616B2, “Compounds and methods for the treatment of ERB B2/NEU positive diseases” (Bio-Thera Solutions, Ltd., Co., priority 2012, dated 2017)

Columns and labels:
tubulin = test: HTS-Tubulin Polymerization Assay Kit, tubulin polymerization in vitro; type: biochemical; settings: for inhibition of tubulin polymerization compared with the PBS buffer: Example 6, 1 μM stock of test substance, 4 mg/mL tubulin, 37° C., 405 nm
Method: The effect of 3AA-MDC, 206-3AA-MDC and the metabolites (Cys-3AA-MDC and Lys-mcc-MDC) of prodrug antibody maytansinoid conjugates on the tubulin polymerization in vitro was assessed by HTS-Tubulin Polymerization Assay Kit (BK004P, Cytoskeleton, Inc., USA). According to the instruction of kit, pre-warm the 96-well plate to 37° C. for 30 min prior to starting the assay. At the same time, the spectrophotometer (SpectraMax, Molecular Devices, USA) was set as follow: wavelength, 405 nm; temperature, 37° C.; Kinetic, 31 cycles of 1 reading per minute. Make cold G-PEM buffer (990 μL General Tubulin Buffer+10 μL GTP Stock) and keep it on ice. Prepare 4 mg/mL tubulin, 1 μM L-3AA-MDC (N2′-deacetyl-N2′-(6-maleimido-1-oxo-hexyl)maytansine), 1 μM 206-3AA-MDC, 1 μM cys-3AA-MDC, 1 μM lys-mcc-MDC, 100 μM Paclitaxel, and 100 μM Nocodazole. Add 10 μL G-PEM, 3AA-MDC, 206-3AA-MDC, cys-3AA-MDC, lys-mcc-MDC, Paclitaxel, Nocodazole into the wells, and then add 100 μL 4 mg/ml tubulin to each well. Immediately place the plate into the spectrophotometer and start recording using the kinetic setup described above. […] Nocodazole, the tubulin polymerization inhibitor, was set as a negative control. The metabolite Cys-3AA-MDC was prepared by reaction of 3AA-MDC with cysteine under the base DIEA in CH2Cl2. […] The metabolite Lys-MCC-MDC was prepared by reaction of SMCC-MDC with lysine under the base DIEA in DMF.
The effect of 3AA-MDC and related metabolites on the tubulin polymerization in vitro was assessed by HTS-Tubulin Polymerization Assay Kit (BK004P, Cytoskeleton, Inc., USA). According to the instruction of kit, pre-warm the 96-well plate to 37° C. for 30 min prior to starting the assay. At the same time, the spectrophotometer (SpectraMax, Molecular Devices, USA) was set as follow: wavelength, 405 nm; temperature, 37° C.; Kinetic, 31 cycles of 1 reading per minute. Make cold G-PEM buffer (990 μL General Tubulin Buffer+10 μL GTP Stock) and keep it on ice. Prepare 4 mg/ml tubulin, 200 nM L-3AA-MDC (N2′-deacetyl-N2′-(6-maleimido-1-oxo-hexyl)maytansine), or related compounds cys-3AA-MDC, or lys-mcc-MDC, 100 μM Paclitaxel, 100 μM Nocodazole, and 1 μM 206-3AA-MDC (3AA-MDC-antibody). Add 10 μL G-PEM, 3AA-MDC, Paclitaxel, Nocodazole and 206-3AA-MDC or related metabolites into the wells, and then add 100 μL 4 mg/ml tubulin to each well. Immediately place the plate into the spectrophotometer and start recording using the kinetic setup described above.

[1] = system: human acute lymphoblastic leukemia line C.E.M.; settings: Wolpert-DeFillippes et al. 1975; cited from earlier work

Question: With COc1cc2cc(c1Cl)N(C)C(=O)C[C@H](OC(=O)[C@H](C)N(C)C(=O)CCSC1CC(=O)N(CC3CCC(C(=O)NCCCC[C@H](N)C(=O)O)CC3)C1=O)[C@]1(C)O[C@H]1[C@H](C)[C@@H]1C[C@@](O)(NC(=O)O1)[C@H](OC)/C=C/C=C(\C)C2 (stereo partly drawn) [Lys-mcc-MDC] as the molecule, how does the “inhibition of tubulin polymerization compared with the PBS buffer” value (tubulin) read?
Answer: more significantly inhibited

Question: For COC(=O)Nc1nc2ccc(C(=O)c3cccs3)cc2[nH]1 [Nocodazole], which “relative activity of tubulin polymerization, decreased” value (tubulin; Example 7, 100 μM stock) is on record?
Answer: 2.5 fold

Question: With CC(=O)O[C@H]1C(=O)[C@@]2(C)[C@H]([C@H](OC(=O)c3ccccc3)[C@]3(O)C[C@H](OC(=O)[C@H](O)[C@@H](NC(=O)c4ccccc4)c4ccccc4)C(C)=C1C3(C)C)[C@]1(OC(C)=O)CO[C@@H]1C[C@@H]2O [Paclitaxel] as the molecule, how does the “relative activity of tubulin polymerization, enhanced” value (tubulin; Example 7, 100 μM stock) read?
Answer: about 3 fold

Question: What does the source list for COc1cc2cc(c1Cl)N(C)C(=O)C[C@H](OC(=O)[C@H](C)N(C)C(=O)CCCCCN1C(=O)C=CC1=O)[C@]1(C)OC1[C@H](C)[C@@H]1C[C@@](O)(NC(=O)O1)[C@H](OC)/C=C/C=C(\C)C2 (stereo partly drawn) [3AA-MDC, N2′-deacetyl-N2′-(6-maleimido-1-oxo-hexyl)-maytansine]?
Answer: inhibition of tubulin polymerization compared with the PBS buffer (tubulin): more significantly inhibited; inhibition of tubulin polymerization (tubulin; Example 7, 200 nM stock, FIG. 1): more significantly inhibited

Question: For COc1cc2cc(c1Cl)N(C)C(=O)C[C@H](OC(=O)[C@H](C)N(C)C(C)=O)[C@]1(C)O[C@H]1[C@H](C)[C@@H]1C[C@@](O)(NC(=O)O1)[C@H](OC)/C=C/C=C(\C)C2 [Maytansine], which “inhibitory concentration, as low as” value [1] is on record?
Answer: 10^−7 µg/mL
